# Key:
# [1] = target: human glucagon receptor missense variant R225^3.30H (human) (UniProt P47871)
# [2] = system: patients with type 2 diabetes, GLP-1R G168^1.63S carriers; details: cited from earlier work
# Source text: (§1) Previous in vivo characterizations of missense variants in the GLP-1R and GIPR have pointed to associations between receptor impairments and clinical phenotypes. One example is the more frequently occurring variant of GIPR E354^6.53Q (gnomAD MAF: 0.2). […] Heterozygous carriers of the rare missense variant T14 ...
# [3] = system: GLP-1R variants P7^ECDL, R44^ECDH and L260^ICL2P; details: cited from earlier work
# Source text: as §1
# GLP-1R T149^1.44M = details: cited from earlier work
# Source text: as §1
# GLP-1R G168^1.63S = details: cited from earlier work
# Source text: as §1
# UniProt P47871, sequence (P47871 other isoform, or with tags, fused parts or gaps mutant): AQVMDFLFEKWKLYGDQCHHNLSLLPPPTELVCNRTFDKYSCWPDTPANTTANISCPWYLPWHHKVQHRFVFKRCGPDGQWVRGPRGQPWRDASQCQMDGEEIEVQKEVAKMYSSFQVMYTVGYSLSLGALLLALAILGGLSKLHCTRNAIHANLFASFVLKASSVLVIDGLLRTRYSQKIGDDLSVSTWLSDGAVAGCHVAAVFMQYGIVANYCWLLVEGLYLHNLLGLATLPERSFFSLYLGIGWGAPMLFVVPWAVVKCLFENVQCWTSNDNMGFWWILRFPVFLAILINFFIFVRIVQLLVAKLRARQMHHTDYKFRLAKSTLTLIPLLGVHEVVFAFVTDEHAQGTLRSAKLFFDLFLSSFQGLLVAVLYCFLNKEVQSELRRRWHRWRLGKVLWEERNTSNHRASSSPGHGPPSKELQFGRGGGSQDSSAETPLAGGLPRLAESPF
substance,measurement,setting,value
β-arrestin-2 (Rluc8-Arr3-Sp2) (from UniProt P32121 1-409) (natural protein),"potency (EC50) of glucagon in β-arrestin-2 recruitment, BRET in HEK293, fold decrease against wildtype",[1],6 fold
"liraglutide: treatment with liraglutide of patients with type 2 diabetes (HAEGTFTSDVSSYLEGQAAKEFIAWLVRGRG; chains of the INN, looked up)",weight loss and fat mass,[2],improved weight loss and lower fat mass
glucagon-like peptide-1 [GLP-1],GLP-1 binding and receptor signaling,[3],wildtype-like GLP-1 binding and receptor signaling
same,binding capacity of GLP-1,GLP-1R T149^1.44M,lower binding capacity
same,receptor signaling,GLP-1R T149^1.44M,impaired receptor signaling capabilities
same,receptor signaling and binding affinity of GLP-1,GLP-1R G168^1.63S,preserved receptor signaling and binding affinity

# Source: PMC8829087 (The Journal of Biological Chemistry, 2021)
